Data on three compounds can be found in ChEMBL document CHEMBL1137662, “Effect of oral treatment with hexadecyloxypropyl-[(S)-9-(3-hydroxy-2- phosphonylmethoxypropyl)adenine] [(S)-HPMPA] or octadecyloxyethyl-(S)-HPMPA on cowpox or vaccinia virus infections in mice” (Antimicrob Agents Chemother, 2007).

A short description of data set [1]: Oral bioavailability in Swiss Webster mouse at 10 mg/kg. The format is ADME, organism-based. To be noted: in vivo.
Data set [2] in a line: Selectivity index, ratio of CC50 for HFF cells to EC50 for Cowpox virus Brighton. To be noted: human, read-out: Ratio CC50/EC50. The class given is toxicity, cell-based.
The nature of data set [3]: Selectivity index, ratio of CC50 for HFF cells to EC50 for Vaccinia virus WR. To be noted: human, read-out: Ratio CC50/EC50. The class given is toxicity, cell-based.
Data set [4] has as its system Cowpox virus. Briefly: Antiviral activity against Cowpox virus Brighton in HFF cells assessed as reduction of viral replication after 3 days. The class given is functional, organism-based, Cowpox virus (Brighton Red). To be noted: 72 h.
Data set [5] concerns Vaccinia virus. Briefly: Antiviral activity against Vaccinia virus WR in HFF cells assessed as reduction of viral replication after 3 days. The class given is functional, organism-based. To be noted: Orthopoxvirus vaccinia, 72 h.
Data set [6] has as its system Vaccinia virus. In words: Antiviral activity against Vaccinia virus Copenhagen in HFF cells assessed as reduction of viral replication after 3 days. The class given is functional, organism-based. To be noted: Orthopoxvirus vaccinia, 72 h.
Data set [7] in a line: Selectivity index, ratio of CC50 for HFF cells to EC50 for Vaccinia virus Copenhagen. The class given is toxicity, cell-based. To be noted: human, read-out: Ratio CC50/EC50.
Data set [8] in a line: Cytotoxicity against HFF cells after 7 days. The format is cell-based. To be noted: human.
Data set [9] has as its system Cowpox virus. Briefly: Antiviral activity against Cowpox virus Brighton infected BALB/c mouse assessed as mortality at 10 mg/kg, ip treated for 5 days after 72 hrs of viral inoculation. The format is functional, Cowpox virus (Brighton Red). To be noted: route intraperitoneal.
The test system of data set [10] is Vaccinia virus. In words: Antiviral activity against Vaccinia virus WR infected BALB/c mouse assessed as reduction of viral titer in lung at 30 mg/kg, po treated for 5 days after 24 hrs of viral inoculation. The class given is functional, organism-based. More on the design: dose 30 mg/kg. To be noted: Orthopoxvirus vaccinia.
The subject of data set [11] is Cowpox virus. In words: Antiviral activity against Cowpox virus Brighton infected BALB/c mouse assessed as mean death day at 10 mg/kg, po treated for 5 days after 48 hrs of viral inoculation. The class given is functional, Cowpox virus (Brighton Red).
In data set [12] the test system is Cowpox virus. In words: Antiviral activity against Cowpox virus Brighton infected BALB/c mouse assessed as mortality at 10 mg/kg, ip treated for 5 days after 48 hrs of viral inoculation. To be noted: route intraperitoneal. The class given is functional, Cowpox virus (Brighton Red).
In data set [13] the test system is Cowpox virus. In words: Antiviral activity against Cowpox virus Brighton infected BALB/c mouse assessed as mortality at 10 mg/kg, ip treated for 5 days after 24 hrs of viral inoculation. The format is functional, Cowpox virus (Brighton Red). To be noted: route intraperitoneal.
In data set [14] the test system is Vaccinia virus. In words: Antiviral activity against Vaccinia virus WR infected BALB/c mouse assessed as mortality at 15 mg/kg, ip treated for 5 days after 72 hrs of viral inoculation. To be noted: route intraperitoneal. The format is functional, Orthopoxvirus vaccinia.
The subject of data set [15] is Vaccinia virus. Briefly: Antiviral activity against Vaccinia virus WR infected BALB/c mouse assessed as mortality at 15 mg/kg, ip treated for 5 days after 48 hrs of viral inoculation. The format is functional, Orthopoxvirus vaccinia. To be noted: route intraperitoneal.
The test system of data set [16] is Vaccinia virus. In words: Antiviral activity against Vaccinia virus WR infected BALB/c mouse assessed as mortality at 15 mg/kg, ip treated for 5 days after 24 hrs of viral inoculation. The format is functional, Orthopoxvirus vaccinia. To be noted: route intraperitoneal.
Data set [17] deals with Vaccinia virus. In words: Antiviral activity against Vaccinia virus WR infected BALB/c mouse assessed as mortality at 10 mg/kg, ip treated for 5 days after 72 hrs of viral inoculation. The class given is functional, Orthopoxvirus vaccinia. To be noted: route intraperitoneal.
The test system of data set [18] is Vaccinia virus. Briefly: Antiviral activity against Vaccinia virus WR infected BALB/c mouse assessed as mortality at 10 mg/kg, ip treated for 5 days after 48 hrs of viral inoculation. The format is functional, Orthopoxvirus vaccinia. To be noted: route intraperitoneal.
Data set [19] deals with Vaccinia virus. In words: Antiviral activity against Vaccinia virus WR infected BALB/c mouse assessed as mortality at 10 mg/kg, ip treated for 5 days after 24 hrs of viral inoculation. The format is functional, Orthopoxvirus vaccinia. To be noted: route intraperitoneal.

Calls of active or inactive are those of the source. No cut-off for these calls is given here.

`Nc1ncnc2c1ncn2C[C@@H](CO)OCP(=O)(O)O`: the bioavailability in data set [1] turned out to be 24%. In addition, the selectivity ratio is more than 72 in data set [2], more than 44 in data set [3] and more than 107 in data set [7]. For the same compound, the results for the EC50 in the data set with Cowpox virus [4], with Vaccinia virus [5] and in the data set on Vaccinia virus [6] were 4 µM, 6.5 µM and 2.7 µM, respectively. The compound further displayed a 50% cytotoxic concentration (CC50) at 168 h in [8] of more than 289 µM.

As to `Nc1ccn(C[C@@H](CO)OCP(=O)(O)O)c(=O)n1.O.O` [CIDOFOVIR], the Activity in the data set with Cowpox virus [9] stood at 0%; in the data set on Cowpox virus [11], 11 days; in the data set on Cowpox virus [12], 0%; with Cowpox virus [13], 0%; with Vaccinia virus [14], 0%; in the data set on Vaccinia virus [15] it was 100%. For the same compound, the Activity is on record as 0% with Vaccinia virus [16], 143% with Vaccinia virus [17], 0% in the data set with Vaccinia virus [18] and 0% in the data set on Vaccinia virus [19]. Further, the selectivity ratio in data set [2] was more than 9.1; in data set [3] it was more than 10.9; in [7], more than 12.2. The EC50 came out at 35 µM with Cowpox virus [4] and 26 µM in the data set on Vaccinia virus [6]. For the same compound, the CC50 at 168 h in [8] was more than 317 µM. In addition, in the data set with Vaccinia virus [10], the outcome was Active.

Consider `CCCCCCCCCCCCCCCCOCCCOP(=O)(O)CO[C@H](CO)Cn1ccc(N)nc1=O` [BRINCIDOFOVIR], for which the selectivity ratio was determined as 52 in data set [2], 28 in data set [3] and 39 in [7]. Moreover, the EC50 was 0.6 µM with Cowpox virus [4], 1.1 µM in the data set with Vaccinia virus [5] and 0.8 µM with Vaccinia virus [6]. The compound also had a CC50 at 168 h in data set [8] of 31 µM.
